Measured values published in PMC3431236, “Characterization and optimization of ArtinM lectin expression in Escherichia coli” (BMC Biotechnology, 2012).

Key:
[1] = biological target: T1, rArtinM (recombinant ArtinM) (Artocarpus integer, UniProt Q7M1T4, Q3R); test: affinity chromatography on D-mannose column, eluted with free D-mannose; format: binding; conditions: PBS with 0.5 M NaCl, 4 °C; elution with 0.1 M D-mannose; unintentional Q3R carried by the recombinant protein
T1 construct: coding region from cDNA clone pLL29 in pET29a(+) (NdeI/BamHI, stop codon, untagged), E. coli BL21-CodonPlus(DE3)-RP; initiator Met removed, not N-acetylated; unintentional Q3R; monomer (native is tetramer)
T1 sequence (Q7M1T4 entry or part of it Q3R): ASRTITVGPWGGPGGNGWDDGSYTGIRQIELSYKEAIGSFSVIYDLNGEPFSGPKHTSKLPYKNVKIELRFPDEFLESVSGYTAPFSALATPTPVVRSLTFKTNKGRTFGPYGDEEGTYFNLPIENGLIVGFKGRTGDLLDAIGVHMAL

[2] = biological target: plant native ArtinM (Artocarpus integrifolia); test: SEC; analytical size exclusion chromatography on TSK-G2000sw, 50 mM KH2PO4, 300 mM NaCl, pH 7.4; calibrated with thyroglobulin, immunoglobulin G, ovalbumin and myoglobin

OC[C@H]1OC(O)[C@@H](O)[C@@H](O)[C@@H]1O (stereo partly drawn) [D-mannose]
affinity chromatography on D-mannose column, eluted with free D-mannose [1]: purified from the E. coli lysate by affinity chromatography on a D-mannose column

plant native ArtinM (natural protein)
stoichiometry N [2]: 4
